Where two headings read alike, the source gives them in different places.
Key:
S. aureus M.06.02.0071 [1] = assay: Sensitivity of the strain to bacteriophages and antibiotics; format: cell-based, Staphylococcus aureus
[2] = tested on: S. aureus M.06.02.0071 (USA300, MRSA, ST8); format: in vivo, mouse; conditions: for Percentage of surviving animals: antibiotics 2 × day
Protocol: A non-sensitive antibiotic (ciprofloxacin) and a sensitive antibiotic (vancomycin) were also used to allow a comparison to be made.
Four groups, each of 20 mice weighing approximately 25 g, were first subjected to immunosuppression to ensure that they would be adequately infected by S. aureus. The immunosuppression began with an application of cyclophosphamide 4 days before the bacterial infection. A further application of cyclophosphamide was carried out 1 day before, together with a once-only administration of cortisone. The immunosuppression with cyclophosphamide was repeated at intervals of 3 days.
The strain of S. aureus which was selected for the infection was resistant to this antibiotic.
The strain of S. aureus which was selected for the infection (internal designation M.06.02.0071) was an isolate which was supplied by the Robert-Koch-Institut of Wernigerode. This S. aureus is a member of the group of USA300 (MRSA, ST8) strains which are considered particularly virulent due to the presence of the virulence factor PVL.
On day 0, the mice had 1.5×10^7 CFU of the S. aureus applied to them intratrachially under anaesthetic.
The medicament, which was applied intratrachially under anaesthetic, was a one-off dose of 5.5×10^10 PFU of a 1:1 mixture of the bacteriophages DSM 18722 and DSM 18723 either one hour before the infection or one hour after the infection. One group, beginning 1 day before the infection, was also treated subcutaneously with vancomycin twice a day.
The main parameter was the determination of lethality as a function of the time elapsed since the start of the test. The length of the test was 14 days.

S. aureus DSM 18421 [3] = assay: Nanocalorimetric measurement of metabolism; format: cell-based, Staphylococcus aureus; conditions: antibiotics 10 μg/ml; bacteriophages 4×10^9 PFU/ml
Protocol: (§1) Another sensitive method of examining the activity of micro-organisms is available in the form of nanocalorimetry. In this technique, metabolic action is measured by way of the heat it produces. The production of heat is measured from the voltage (in [p\/]) generated at thermocouples.
(§2) A detailed description of the measuring system used and the procedure can be found in: J. Lerchner et al., Thermochimica Acta 477, 2008, 48-53.
(§3) The concentration of the bacteriophages was 4×10^9 PFU/ml.

S. aureus M.06.02.0071 [4] = assay: Nanocalorimetric measurement of metabolism; format: cell-based, Staphylococcus aureus; conditions: antibiotics 10 μg/ml; bacteriophages 4×10^9 PFU/ml
Protocol: as §1, §2, §3

[5] = tested on: S. aureus from tissue (M.06.02.0071, mouse pneumonia model); assay: Nanocalorimetric measurement of metabolism, bacteria isolated from lung tissue; format: cell-based, Staphylococcus aureus; conditions: antibiotics 10 μg/ml, bacteriophages 4×10^9 PFU/ml
Protocol: as §1, §2, §3

S. aureus DSM 18421 [6] = assay: Sensitivity of the strain to bacteriophages and antibiotics; format: cell-based, Staphylococcus aureus
[7] = tested on: Staphylococcus aureus DSM 18421; assay: Lysis of Staphylococcus aureus DSM 18421 in saliva (viable cell count); format: cell-based
Protocol: • Morning saliva (before breakfast and before cleaning of teeth) was collected from different individual persons. • The saliva samples were centrifuged for 5 min at room temperature at 12,000 rpm. • The supernatant liquid was removed and sterile filtered (0.8 μm pre-filter, then a 0.22 μm filter). • The samples of saliva were mixed 1:1 in a sterile vessel. 7.2 Incubation of the Preparations for Lysis • To the saliva prepared as described above were also added: • approx. 1×10^4 CFU/ml of DSM 18421 (from a suitable dilution of the overnight culture), • approx. 1×10^8 PFU/ml of phages (Simba Top, 1:1 mixture of purified M and K phages). • Used in addition were serralysin (100 U/ml), dornase (25 μml) or benzonase (25 μml) or a combination of these enzymes. • The enzymes were added right at the start of the incubation. • A control incubation was carried out at the same time in which the phages were replaced by adding the same volume of storage buffers (for composition see below). • The total volume of all the preparations was 2 ml. • The incubation was carried out in 10 ml glass penicillin bottles at 37° C. and 200 rpm (in a shaker incubator) 7.3 Determination of the Viable Cell Count (CFU/ml) After 6 h • After an incubation period of 6 h, an aliquot was taken from each preparation and a factor-of-ten dilution series prepared from it. • 2-5 suitable dilutions were selected from each dilution series and 2×100 μl (twin samples) of each were plated (with a Drigalski spatula). • The plating was performed onto LB agar in the case of the phage-free preparations and onto LB agar containing 0.01% citrate in the case of the preparations containing phages. • After at least 16 h of incubation at 37° C., the colony forming units (CFU's) were counted on each plate • Only plates which had at least 20 CFU's were used to calculate the FIGURE for CFU/ml • A representation in graph form was prepared by plotting CFU/ml (in logarithmic form) against the period of incubation.
Period of incubation: 6 hours Medium: saliva (human; mixture)

[8] = Table 10, 6 h, 37° C., phages approx. 1×10^8 PFU/ml, serralysin 100 U/ml

Molecule | Sensitivity of the strain, in words (S. aureus M.06.02.0071 [1]) | Percentage of surviving animals ([2]; 0 hours after infection) [%] | Percentage of surviving animals ([2]; 5 hours after infection) [%] | Percentage of surviving animals ([2]; 19 hours after infection) [%] | Percentage of surviving animals ([2]; 23 hours after infection) [%] | Percentage of surviving animals ([2]; 29 hours after infection) [%] | Percentage of surviving animals ([2]; 43 hours after infection) [%] | Percentage of surviving animals ([2]; 47 hours after infection) [%] | % relative to control (S. aureus DSM 18421 [3]) [%] | Difference voltage (S. aureus DSM 18421 [3]) [μV] | % relative to control (S. aureus M.06.02.0071 [4]) [%] | Difference voltage (S. aureus M.06.02.0071 [4]) [μV] | % relative to control [5] [%] | Difference voltage [5] [μV] | Mortality in the acute phase, in words ([2]; bacteriophages one-off before the infection, vancomycin prior and thereafter continuous, compared with the placebo) | Sensitivity of the strain, in words (S. aureus DSM 18421 [6]) | Effect on the colony count of S. aureus in saliva, in words ([7]; 6 h) | Colony count, % of control without phages [7, 8] [%] | Viable cell count [7, 8]
O=C(O)c1cn(C2CC2)c2cc(N3CCNCC3)c(F)cc2c1=O [Ciprofloxacin, ciprofloxacin] | resistant | 100 | 100 | 60 | 45 | 35 | 10 | 10 |  |  |  |  |  |  |  |  |  |  | 
CN[C@H](CC(C)C)C(=O)N[C@H]1C(=O)N[C@@H](CC(N)=O)C(=O)N[C@H]2C(=O)N[C@H]3C(=O)N[C@H](C(=O)N[C@H](C(=O)O)c4cc(O)cc(O)c4-c4cc3ccc4O)[C@H](O)c3ccc(c(Cl)c3)Oc3cc2cc(c3O[C@@H]2O[C@H](CO)[C@@H](O)[C@H](O)[C@H]2O[C@H]2C[C@](C)(N)[C@H](O)[C@H](C)O2)Oc2ccc(cc2Cl)[C@H]1O [Vancomycin, vancomycin] | sensitive |  |  |  |  |  |  |  | 36 | −3.681 | 41 | −4.132 | 61 | −0.438 | reduction in mortality | sensitive |  |  | 
serralysin |  |  |  |  |  |  |  |  |  |  |  |  |  |  |  |  | did not cause a reduction in the colony count | 130 | 1.14 × 10^6 CFU/ml
